Laboratory results published in patent US20140162980A1, “NOVEL MICROBIOCIDAL DIOXIME ETHER DERIVATIVES” (SYNGENTA CROP PROTECTION LLC, priority 2010, published 2014).

Key:
[1] = tested on: Magnaporthe grisea (Pyricularia oryzae); experiment: whole plant or invertebrate; format: in vivo; conditions: foliar, read-out: control of Magnaporthe grisea (percent disease control compared to untreated)
[2] = tested on: Puccinia recondita f. sp. tritici; experiment: Puccinia recondita f. sp. tritici / wheat / leaf disc curative (brown rust); format: in vivo; conditions: foliar, 200 ppm applied 1 day after inoculation, wheat leaf segments cv Kanzler, assessed 6-8 days after application, read-out: control of Puccinia recondita f. sp. tritici, curative (percent disease control compared to untreated)
Procedure: Puccinia Recondita f. Sp. Tritici/Wheat/Leaf Disc Curative (Brown Rust): Wheat leaf segments cv Kanzler were placed on agar in 24-well plates. The leaf segments were inoculated with a spore suspension of the fungus. The plates were stored in darkness at 19° C. and 75% relative humidity. The formulated test compound diluted in water was applied at an application rate of 200 ppm 1 day after inoculation.

[3] = tested on: Phaeosphaeria nodorum (Septoria nodorum); experiment: Phaeosphaeria nodorum (Septoria nodorum) / wheat / leaf disc preventative (glume blotch); format: in vivo; conditions: Parastagonospora nodorum, foliar, wheat leaf segments cv Kanzler, inoculated 2 days after application, assessed 5-7 days after application, read-out: control of Phaeosphaeria nodorum (percent disease control compared to untreated)
Procedure: Phaeosphaeria Nodorum (Septoria nodorum)/Wheat/Leaf Disc Preventative (Glume Blotch): Wheat leaf segments cv Kanzler were placed on agar in a 24-well plate and sprayed with formulated test compound diluted in water at an application rate of 200 ppm. The leaf disks are inoculated with a spore suspension of the fungus 2 days after application. The inoculated test leaf disks are incubated at 20° C. and 75% relative humidity under a light regime of 12/12 h (light/dark) in a climate cabinet and the activity of a compound is assessed as percent disease control compared to untreated when an appropriate level of disease damage appears in untreated check leaf disks (5-7 days after application).

[4] = tested on: Blumeria graminis f. sp. tritici (Erysiphe graminis f. sp. tritici); experiment: Blumeria graminis f. sp. tritici / wheat / leaf disc preventative (powdery mildew on wheat); format: in vivo; conditions: foliar, wheat leaf segments cv. Kanzler, inoculated 1 day after application, assessed 6-8 days after application, read-out: control of Blumeria graminis (percent disease control compared to untreated)
Procedure: Blumeria Graminis f. Sp. Tritici (Erysiphe Graminis f. Sp. Tritici)/Wheat/Leaf Disc Preventative (Powdery Mildew on Wheat):
Wheat leaf segments cv. Kanzler were placed on agar in a 24-well plate and sprayed with the formulated test compound diluted in water at an application rate of 200 ppm. The leaf disks were inoculated by shaking powdery mildew infected plants above the test plates 1 day after application. The inoculated leaf disks were incubated at 20° C. and 60% relative humidity under a light regime of 24 h darkness followed by 12 h/12 h (dark/light) in a climate chamber and the activity of a compound was assessed as percent disease control compared to untreated when an appropriate level of disease damage appears on untreated check leaf segments (6-8 days after application). The following compounds gave at least 80% control of Blumeria graminis: […]

Pyrenophora teres = Pyrenophora teres / barley / leaf disc preventative (net blotch); format: in vivo; conditions: foliar, barley leaf segments cv Hasso, inoculated two days after application, assessed 5-7 days after application, read-out: control of Pyrenophora teres (disease control compared to untreated)
Procedure: Pyrenophora Teres/Barley/Leaf Disc Preventative (Net Blotch): Barley leaf segments cv Hasso are placed on agar in a 24-well plate and sprayed with formulated test compound diluted in water at an application rate of 200 ppm. The leaf segments are inoculated with a spore suspension of the fungus two days after application of the test solution. The inoculated leaf segments are incubated at 20° C. and 65% relative humidity under a light regime of 12/12 h (light/dark) in a climate cabinet and the activity of a compound is assessed as disease control compared to untreated when an appropriate level of disease damage appears in untreated check leaf segments (5-7 days after application).

Pythium ultimum = Pythium ultimum / liquid culture (seedling damping off); format: cell-based; conditions: Globisporangium ultimum, PDB potato dextrose broth, 24° C., 2-3 days after application, read-out: control of Pythium ultimum (inhibition of growth, photometrically)
Procedure: Pythium Ultimum/Liquid Culture (Seedling Damping Off): Mycelia fragments and oospores of a newly grown liquid culture of the fungus were directly mixed into nutrient broth (PDB potato dextrose broth). After placing a DMSO solution of test compound into a 96 well microtiter plate at an application rate 200 ppm, the nutrient broth containing the fungal mycelia/spore mixture was added. The test plates were incubated at 24° C. and the inhibition of growth was determined photometrically 2-3 days after application.

[5] = tested on: Puccinia recondita f. sp. tritici; experiment: Puccinia recondita f. sp. tritici / wheat / leaf disc preventative (brown rust); format: in vivo; conditions: foliar, wheat leaf segments cv Kanzler, inoculated 1 day after application, assessed 7-9 days after application, read-out: control of Puccinia recondita f. sp. tritici, preventative (percent disease control compared to untreated)
Procedure: Puccinia Recondita f. Sp. Tritici/Wheat/Leaf Disc Preventative (Brown Rust): Wheat leaf segments cultivated variety (cv) Kanzler were placed on agar in 24-well plates and sprayed with formulated test compound diluted in water at an application rate of 200 ppm. The leaf disks were inoculated with a spore suspension of the fungus 1 day after application. The inoculated leaf segments were incubated at 19° C. and 75% relative humidity under a light regime of 12/12 h (light/dark) in a climate cabinet and the activity of a compound was assessed as percent disease control compared to untreated when an appropriate level of disease damage appears in untreated check leaf segments (7-9 days after application).

[6] = tested on: Botryotinia fuckeliana (Botrytis cinerea); experiment: Botryotinia fuckeliana (Botrytis cinerea) / liquid culture (gray mould); format: cell-based; conditions: Vogels broth, 24° C., 3-4 days after application, read-out: control of Botryotinia fuckeliana (inhibition of growth, photometrically)
Procedure: Botryotinia Fuckeliana (Botrytis cinerea)/Liquid Culture (Gray Mould): Conidia of the fungus from cryogenic storage were directly mixed into nutrient broth (Vogels broth). After placing a DMSO solution of test compound into a 96-well microtiter plate at an application rate 200 ppm, the nutrient broth containing the fungal spores was added. The test plates were incubated at 24° C. and the inhibition of growth was determined photometrically 3-4 days after application.

Sclerotinia sclerotiorum = Sclerotinia sclerotiorum / liquid culture (cottony rot); format: cell-based; conditions: PDB potato dextrose broth, 24° C., 3-4 days after application, read-out: control of Sclerotinia sclerotiorum (inhibition of growth, photometrically)
Procedure: Sclerotinia Sclerotiorum/Liquid Culture (Cottony Rot) Mycelia fragments of a newly grown liquid culture of the fungus are directly mixed into nutrient broth (PDB potato dextrose broth). After placing a (DMSO) solution of test compound into a microtiter plate at an application rate 200 ppm (96-well format) the nutrient broth containing the fungal material is added. The test plates are incubated at 24° C. and the inhibition of growth is determined photometrically 3-4 days after application.

Alternaria solani = Alternaria solani / tomato / leaf disc (early blight); format: in vivo; conditions: foliar, tomato leaf disks cv. Baby, inoculated 2 days after application, assessed 5-7 days after application, read-out: control of Alternaria solani (percent disease control compared to untreated)
Procedure: Alternaria Solani/Tomato/Leaf Disc (Early Blight): Tomato leaf disks cv. Baby are placed on agar in multiwell plates (24-well format) and sprayed with the formulated test compound diluted in water at an application rate of 200 ppm. The leaf disks are inoculated with a spore suspension of the fungus 2 days after application. The inoculated leaf disks are incubated at 23° C./21° C.

[7] = tested on: Thanatephorus cucumeris (Rhizoctonia solani); experiment: Thanatephorus cucumeris (Rhizoctonia solani) / liquid culture (foot rot, damping-off); format: cell-based; conditions: PDB potato dextrose broth, 24° C., 3-4 days after application, read-out: control of Thanatephorus cucumeris (inhibition of growth, photometrically)
Procedure: Thanatephorus Cucumeris (Rhizoctonia solani)/Liquid Culture (Foot Rot, Damping-Off): Mycelia fragments of a newly grown liquid culture of the fungus are directly mixed into nutrient broth (PDB potato dextrose broth). After placing a DMSO solution of the test compounds into a 96-well microtiter plate at an application rate 200 ppm, the nutrient broth containing the fungal material was added. The test plates were incubated at 24° C. and the inhibition of growth was determined photometrically 3-4 days after application.

Phytophthora infestans = experiment: whole plant or invertebrate; format: in vivo; conditions: in Solanum lycopersicum, foliar, read-out: control of Phytophthora infestans (percent disease control compared to untreated)
Plasmopara viticola = experiment: whole plant or invertebrate; format: in vivo; conditions: foliar, read-out: control of Plasmopara viticola (percent disease control compared to untreated)

Cc1ccc2c(n1)/C(=N/OCC(C)(C)CO/N=C1\CCCc3c(CF)cc(C)nc31)CCC2 [P.44]
≥ 80%: pest or weed control at 200 ppm [1] | pest or weed control at 200 ppm [2] | pest or weed control at 200 ppm [3] | pest or weed control at 200 ppm [4] | pest or weed control at 200 ppm (Pyrenophora teres) | inhibition at 200 ppm (Pythium ultimum) | pest or weed control at 200 ppm [5] | inhibition at 200 ppm [6] | inhibition at 200 ppm (Sclerotinia sclerotiorum)

Cc1ccc2c(n1)/C(=N/OC[Si](C)(C)CO/N=C1\CCCc3ccc(C)nc31)CCC2 [P.20]
≥ 80%: pest or weed control at 200 ppm (Alternaria solani) | pest or weed control at 200 ppm [2] | pest or weed control at 200 ppm [3] | pest or weed control at 200 ppm [4] | inhibition at 200 ppm [7] | pest or weed control at 200 ppm (Pyrenophora teres) | inhibition at 200 ppm (Pythium ultimum) | pest or weed control at 200 ppm [5] | inhibition at 200 ppm [6]

Cc1ccc2c(n1)/C(=N/OCC(C)(C)CO/N=C1\CCCc3ccc(C)nc31)CCC2 [P.02]
≥ 80%: pest or weed control at 200 ppm [2] | pest or weed control at 200 ppm [3] | pest or weed control at 200 ppm [4] | pest or weed control at 200 ppm (Phytophthora infestans) | inhibition at 200 ppm [7] | pest or weed control at 200 ppm (Pyrenophora teres) | inhibition at 200 ppm (Pythium ultimum) | pest or weed control at 200 ppm [5] | inhibition at 200 ppm [6]

CCOc1cc(C)nc2c1CCC/C2=N\OCCCO/N=C1\CCCc2ccc(C)nc21 [P.32]
≥ 80%: pest or weed control at 200 ppm (Plasmopara viticola) | pest or weed control at 200 ppm [1] | pest or weed control at 200 ppm [3] | pest or weed control at 200 ppm [4] | pest or weed control at 200 ppm (Phytophthora infestans) | pest or weed control at 200 ppm (Pyrenophora teres) | pest or weed control at 200 ppm [5] | inhibition at 200 ppm [6]

C=C(CO/N=C1\CCCc2ccc(C)nc21)CO/N=C1\CCCc2ccc(C)nc21 [P.07]
≥ 80%: pest or weed control at 200 ppm (Alternaria solani) | pest or weed control at 200 ppm [2] | pest or weed control at 200 ppm [3] | pest or weed control at 200 ppm [4] | pest or weed control at 200 ppm (Pyrenophora teres) | inhibition at 200 ppm (Pythium ultimum) | pest or weed control at 200 ppm [5] | inhibition at 200 ppm [6]

Cc1ccc2c(n1)/C(=N/OCC(C)CO/N=C1\CCCc3ccc(C)nc31)CCC2 (stereo not shown) [P.09]
≥ 80%: pest or weed control at 200 ppm (Alternaria solani) | pest or weed control at 200 ppm [2] | pest or weed control at 200 ppm [3] | pest or weed control at 200 ppm [4] | pest or weed control at 200 ppm (Phytophthora infestans) | pest or weed control at 200 ppm (Pyrenophora teres) | inhibition at 200 ppm (Pythium ultimum) | pest or weed control at 200 ppm [5] | inhibition at 200 ppm [6]

Cc1ccc2c(n1)/C(=N/OCCCO/N=C1\CCCc3ccc(C)nc31)CCC2 [P.05]
≥ 80%: pest or weed control at 200 ppm (Alternaria solani) | pest or weed control at 200 ppm [2] | pest or weed control at 200 ppm [3] | pest or weed control at 200 ppm [4] | pest or weed control at 200 ppm (Phytophthora infestans) | pest or weed control at 200 ppm (Pyrenophora teres) | inhibition at 200 ppm (Pythium ultimum) | pest or weed control at 200 ppm [5] | inhibition at 200 ppm [6]

Cc1ccc2c(n1)/C(=N/OCCCO/N=C1\CCCc3c(-c4ccccc4)cc(C)nc31)CCC2 [P.31]
≥ 80%: pest or weed control at 200 ppm (Alternaria solani) | pest or weed control at 200 ppm (Plasmopara viticola) | pest or weed control at 200 ppm [2] | pest or weed control at 200 ppm [3] | pest or weed control at 200 ppm [4] | inhibition at 200 ppm [7] | pest or weed control at 200 ppm (Pyrenophora teres) | inhibition at 200 ppm (Pythium ultimum) | pest or weed control at 200 ppm [5] | inhibition at 200 ppm [6]

CCC(CO/N=C1\CCCc2ccc(C)nc21)CO/N=C1\CCCc2ccc(C)nc21 [P.10]
≥ 80%: pest or weed control at 200 ppm (Alternaria solani) | pest or weed control at 200 ppm (Plasmopara viticola) | pest or weed control at 200 ppm [2] | pest or weed control at 200 ppm [3] | pest or weed control at 200 ppm [4] | pest or weed control at 200 ppm (Phytophthora infestans) | pest or weed control at 200 ppm (Pyrenophora teres) | inhibition at 200 ppm (Pythium ultimum) | pest or weed control at 200 ppm [5] | inhibition at 200 ppm [6]

Cc1ccc2c(n1)/C(=N/OCCCO/N=C1\CCCc3c(C)cc(C)nc31)CCC2 [P.30]
≥ 80%: pest or weed control at 200 ppm (Alternaria solani) | pest or weed control at 200 ppm (Plasmopara viticola) | pest or weed control at 200 ppm [1] | pest or weed control at 200 ppm [2] | pest or weed control at 200 ppm [3] | pest or weed control at 200 ppm [4] | pest or weed control at 200 ppm (Phytophthora infestans) | inhibition at 200 ppm [7] | pest or weed control at 200 ppm (Pyrenophora teres) | inhibition at 200 ppm (Pythium ultimum) | pest or weed control at 200 ppm [5] | inhibition at 200 ppm [6]

Cc1ccc2c(n1)/C(=N/OCC(C)(C)CO/N=C1\CCCc3cccnc31)CCC2 [P.23]
≥ 80%: pest or weed control at 200 ppm [2] | pest or weed control at 200 ppm [3] | pest or weed control at 200 ppm [4] | pest or weed control at 200 ppm (Phytophthora infestans) | pest or weed control at 200 ppm (Pyrenophora teres) | inhibition at 200 ppm (Pythium ultimum) | pest or weed control at 200 ppm [5]
